Biological target: T1, porcine pancreatic lipase (from pancreatin) (Sus scrofa, UniProt P00591)
T1 construct: pancreatin (Porcine, USP×8, P7585); purchased Sigma-Aldrich P7585; host or cells: porcine pancreas extract (pancreatin)
T1 sequence (P00591 1-450): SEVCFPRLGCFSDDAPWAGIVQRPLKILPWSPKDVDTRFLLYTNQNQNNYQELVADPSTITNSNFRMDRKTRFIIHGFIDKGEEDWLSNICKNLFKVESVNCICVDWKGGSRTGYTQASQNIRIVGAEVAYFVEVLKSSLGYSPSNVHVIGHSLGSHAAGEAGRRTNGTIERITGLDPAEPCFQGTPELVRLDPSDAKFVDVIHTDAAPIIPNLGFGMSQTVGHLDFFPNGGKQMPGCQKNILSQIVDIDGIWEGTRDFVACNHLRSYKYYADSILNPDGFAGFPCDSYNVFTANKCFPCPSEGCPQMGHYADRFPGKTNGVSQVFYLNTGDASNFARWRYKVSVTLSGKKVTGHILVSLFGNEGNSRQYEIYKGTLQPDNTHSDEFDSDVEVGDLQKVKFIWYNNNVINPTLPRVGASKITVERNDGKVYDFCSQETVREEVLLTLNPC
T1 sequence (P02703 23-112 partner): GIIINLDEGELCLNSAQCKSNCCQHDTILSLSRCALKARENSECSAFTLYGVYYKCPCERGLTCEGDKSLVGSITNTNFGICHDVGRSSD
Assay: In vitro digestion in simulated intestinal fluid (SIF), pH-stat
Assay type: in vitro ADME
Conditions: SIF alone; emulsion with 200 mg fat; pH 6.8, 37° C.
Method: 10 wt % oil in water emulsions stabilised by 0.3 wt % polyoxyethylene sorbitan mono-oleate (Tween® 80) were prepared by mixing the Tween 80 into the oil phase at 40° C., then mixing with the water phase using a magnetic stirrer. An emulsion was then created using a Hielscher UP 400S ultrasonic probe homogeniser equipped with a 5 mm diameter rod-like probe by applying 100% amplitude at 100% cycle for 2 minutes whilst the sample was cooled using ice water.
The lipid emulsion (2 mL) containing 200 mg of fat was subjected to gastrointestinal in vitro lipolysis. […]
The intestinal digestion step was performed in the pH stat where the pH was kept constant at 6.8 by addition of NaOH (0.05 M). […] During the intestinal phase of digestion, the kinetics of digestion were followed using a pH-stat (TIM856, Radiometer) technique and expressed as titratable acid (rather than fatty acid) that was calculated by the equation: TA=VNaOH×0:05×1000 […]
Since the digestion of dietary lipids involves lipases of both gastric and intestinal origin, lipid digestibility was assessed using two digestion models i) simulated intestinal fluid (SIF) with porcine pancreatic lipase (PPL) and ii) sequential digestion in simulated gastric fluid (SGF) with rabbit gastric lipase (RGL) followed by simulated intestinal fluid (SIF) with porcine pancreatic lipase (PPL).

## CCCC(=O)OCC(COC(=O)CCC)OC(=O)CCC [tributyrin]
  initial rate of lipolysis: 223 ± 59 µmol/min

Source: patent US12648923B2, “Dietary butyrate and its uses” (SOCIETE DES PRODUITS NESTLE S.A., priority 2019, dated 2026)
